Laboratory results: ChEMBL document CHEMBL1154258, “Discovery and optimization of potent and selective functional antagonists of the human adenosine A2B receptor” (Bioorg Med Chem Lett, 2009)

Columns and labels:
[1] = target: Adenosine receptor A2a (Homo sapiens, UniProt P29274); experiment: Antagonist activity at human adenosine A2A receptor expressed in CHOK1 cells assessed as inhibition of calcium mobilization by FLIPR assay; assay type: functional, cell-based, CHO-K1
[2] = target: T1, Adenosine receptor A2b (Homo sapiens, UniProt P29275); experiment: Antagonist activity at human adenosine A2B receptor expressed in CHOK1 cells assessed as inhibition of calcium mobilization by FLIPR assay; assay type: functional, cell-based, CHO-K1
T1 sequence (P29275 whole entry): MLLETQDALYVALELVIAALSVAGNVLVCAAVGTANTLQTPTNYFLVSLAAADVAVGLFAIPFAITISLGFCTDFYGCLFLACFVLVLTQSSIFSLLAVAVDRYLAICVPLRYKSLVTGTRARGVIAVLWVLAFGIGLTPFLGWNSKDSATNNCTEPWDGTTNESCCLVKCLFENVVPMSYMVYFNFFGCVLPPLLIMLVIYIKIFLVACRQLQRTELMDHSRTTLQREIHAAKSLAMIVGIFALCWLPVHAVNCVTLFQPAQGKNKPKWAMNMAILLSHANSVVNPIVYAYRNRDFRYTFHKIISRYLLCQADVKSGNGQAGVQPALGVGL

[3] = Half life in po dosed rat; assay type: ADME, organism-based; conditions: in vivo
[4] = Oral bioavailability in rat; assay type: ADME, organism-based; conditions: in vivo
[5] = tested on: Plasma; experiment: Clearance in human plasma
[6] = tested on: Rattus norvegicus; experiment: Volume of distribution in po dosed rat; assay type: ADME, organism-based; conditions: in vivo
[7] = Clearance in po dosed rat; assay type: ADME, organism-based; conditions: in vivo
[8] = target: Voltage-gated inwardly rectifying potassium channel KCNH2 (Homo sapiens, UniProt Q12809); experiment: Inhibition of human ERG at 30 uM by patch clamp method
[9] = Permeability across human Caco-2 cells; assay type: ADME, cell-based; conditions: read-out: permeability
[10] = organism: Homo sapiens; experiment: Protein binding in human plasma; conditions: read-out: PPB (converted)

Sequence of Adenosine receptor A2a (P29274 whole entry): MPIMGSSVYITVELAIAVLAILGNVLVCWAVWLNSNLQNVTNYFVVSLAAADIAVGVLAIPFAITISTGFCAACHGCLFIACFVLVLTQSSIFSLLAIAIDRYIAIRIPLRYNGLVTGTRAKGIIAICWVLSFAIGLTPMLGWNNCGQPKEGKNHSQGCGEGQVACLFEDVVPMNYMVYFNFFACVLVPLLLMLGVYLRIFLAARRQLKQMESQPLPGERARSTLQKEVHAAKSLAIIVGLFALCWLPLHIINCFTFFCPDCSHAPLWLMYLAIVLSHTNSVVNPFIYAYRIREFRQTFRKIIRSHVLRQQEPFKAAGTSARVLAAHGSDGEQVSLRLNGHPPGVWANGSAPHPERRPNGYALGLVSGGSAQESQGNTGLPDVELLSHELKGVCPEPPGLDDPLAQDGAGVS
Sequence of Voltage-gated inwardly rectifying potassium channel KCNH2 (Q12809 whole entry): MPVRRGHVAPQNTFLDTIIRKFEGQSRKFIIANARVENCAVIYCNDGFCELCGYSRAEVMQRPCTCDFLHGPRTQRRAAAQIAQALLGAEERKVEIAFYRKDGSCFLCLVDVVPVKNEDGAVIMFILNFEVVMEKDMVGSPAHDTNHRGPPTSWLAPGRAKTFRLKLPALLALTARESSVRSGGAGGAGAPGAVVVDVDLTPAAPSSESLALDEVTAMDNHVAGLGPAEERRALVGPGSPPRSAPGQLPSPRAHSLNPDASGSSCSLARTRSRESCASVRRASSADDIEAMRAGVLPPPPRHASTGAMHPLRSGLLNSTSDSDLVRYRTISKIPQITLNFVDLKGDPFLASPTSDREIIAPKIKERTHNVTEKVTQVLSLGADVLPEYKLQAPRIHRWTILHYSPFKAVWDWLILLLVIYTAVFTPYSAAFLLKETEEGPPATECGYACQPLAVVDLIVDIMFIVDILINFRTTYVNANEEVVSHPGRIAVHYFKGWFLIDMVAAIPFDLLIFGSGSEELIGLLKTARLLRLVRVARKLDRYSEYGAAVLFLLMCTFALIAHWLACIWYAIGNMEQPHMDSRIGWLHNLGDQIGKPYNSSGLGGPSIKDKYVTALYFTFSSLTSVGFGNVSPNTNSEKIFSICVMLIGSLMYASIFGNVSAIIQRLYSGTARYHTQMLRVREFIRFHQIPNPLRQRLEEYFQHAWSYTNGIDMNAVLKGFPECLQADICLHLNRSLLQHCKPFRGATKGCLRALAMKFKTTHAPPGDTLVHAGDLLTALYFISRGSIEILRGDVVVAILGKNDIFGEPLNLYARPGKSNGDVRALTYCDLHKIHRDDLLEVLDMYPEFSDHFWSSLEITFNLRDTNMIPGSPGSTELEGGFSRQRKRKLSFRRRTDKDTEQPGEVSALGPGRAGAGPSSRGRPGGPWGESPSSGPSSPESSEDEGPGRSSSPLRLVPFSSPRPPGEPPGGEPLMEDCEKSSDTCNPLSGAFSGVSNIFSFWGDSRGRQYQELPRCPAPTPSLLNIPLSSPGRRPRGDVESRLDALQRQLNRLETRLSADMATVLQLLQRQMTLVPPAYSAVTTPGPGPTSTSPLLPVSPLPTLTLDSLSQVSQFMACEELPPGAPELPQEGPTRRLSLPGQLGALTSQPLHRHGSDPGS

Row | IC50 [1] | IC50 [2] | Structure (SMILES) | also measured
1 | 710 nM | 256 nM | O=C(NC1CC1)c1nc(NCc2cccnc2)nc2ccsc12 | 
2 | 2610 nM | 309 nM | CC(C)NC(=O)c1nc(NCc2cccnc2)nc2ccsc12 | 
3 | 7850 nM | > 10000 nM | Cc1nc(C(=O)c2ccc(C)s2)c2sccc2n1 | 
4 | 3850 nM | 3670 nM | CCc1nc(C(=O)c2ccc(C)s2)c2sccc2n1 | 
5 | 220 nM | 758 nM | Cc1ccc(C(=O)c2nc(N)nc3ccsc23)s1 | 
6 | 126 nM | 1260 nM | CCNc1nc(C(=O)c2ccc(C)s2)c2sccc2n1 | 
7 | 116 nM | 92 nM | Cc1ccc(C(=O)c2nc(NCc3ccncn3)nc3ccsc23)s1 | 
8 | 118 nM | 19 nM | Cc1ccc(C(=O)c2nc(NC(C)c3ccccn3)nc3ccsc23)s1 (stereo not drawn) | 
9 | 965 nM | 3.5 nM | CNc1cc2nc(NCc3cccnc3)nc(C(=O)c3cccs3)c2s1 | half-life [3]: 55.8 min; bioavailability [4]: 2%; CL [5]: 1.7 L/h/kg; Vd [6]: 2.2 L/kg
10 | > 10000 nM | > 10000 nM | Cc1ccc(C(=O)c2nc(NCC3CCCCC3)nc3ccsc23)s1 | 
11 | 7150 nM | 5580 nM | Cc1ccc(C(=O)c2nc(NCc3ccccc3)nc3ccsc23)s1 | 
12 | 161 nM | 287 nM | Cc1ccc(C(=O)c2nc(NC(=O)c3cccnc3)nc3ccsc23)s1 | 
13 | 6140 nM | 189 nM | O=C(c1nc(NCc2cccnc2)nc2ccsc12)N1CCCC1 | 
14 | 351 nM | 944 nM | Cc1ccc(C(=O)c2nc(NCCc3ccccn3)nc3ccsc23)s1 | 
15 | 177 nM | 450 nM | Cc1ccc(C(=O)c2nc(NCCc3cccnc3)nc3ccsc23)s1 | 
16 | 2270 nM | 4140 nM | Cc1ccc(C(=O)c2nc(N(C)Cc3cccnc3)nc3ccsc23)s1 | 
17 | 1080 nM | 414 nM | Cc1ccc(C(=O)c2nc(NC(C)c3ccccc3)nc3ccsc23)s1 (stereo not drawn) | 
18 | 186 nM | 43 nM | Cc1ccc(C(=O)c2nc(NCc3ccccn3)nc3ccsc23)s1 | 
19 | 990 nM | 55 nM | Cc1ccc(C(=O)c2nc(NCc3cccnc3)nc3ccsc23)s1 | 
20 | 732 nM | 176 nM | O=C(c1nccs1)c1nc(NCc2cccnc2)nc2ccsc12 | 
21 | 1720 nM | 148 nM | O=C(c1cncs1)c1nc(NCc2cccnc2)nc2ccsc12 | 

Row | IC50 [1] | IC50 [2] | Structure (SMILES) | also measured
22 | 6690 nM | 5380 nM | Cc1ccc(C(=O)c2ncnc3ccsc23)s1 | 
23 | 99 nM | 17 nM | Cc1ccc(C(=O)c2nc(NC(C)c3cccnc3)nc3ccsc23)s1 (stereo not drawn) | 
24 | 1540 nM | 487 nM | O=C(c1ccc(Cl)s1)c1nc(NCc2cccnc2)nc2ccsc12 | 
25 | 1250 nM | 468 nM | Cc1ccc(C(=O)c2nc(NCc3cccnc3)nc3ccsc23)o1 | 
26 | 51 nM | 18 nM | O=C(c1cccs1)c1nc(NCc2cccnc2)nc2ccsc12 | 
27 | 405 nM | 148 nM | O=C(c1ccsc1)c1nc(NCc2cccnc2)nc2ccsc12 | 
28 | 1620 nM | 511 nM | O=C(c1ccccc1)c1nc(NCc2cccnc2)nc2ccsc12 | 
29 | 442 nM | 215 nM | Cc1ccc(C(=O)c2nc(NCc3cccnc3)nc3ccsc23)cc1 | 
30 | 637 nM | 1300 nM | COc1ccc(C(=O)c2nc(NCc3cccnc3)nc3ccsc23)cc1 | 
31 | 6760 nM | 3070 nM | C[C@@H](Nc1nc(C(=O)N2CCCC2)c2sccc2n1)c1cccnc1 | 
32 | 468 nM | 18 nM | C[C@H](Nc1nc(C(=O)N2CCCC2)c2sccc2n1)c1cccnc1 | half-life [3]: 138 min; bioavailability [4]: 84%; CL/F [7]: 43.3 mL/min/kg; inhibition (INH) [8]: Not Active; Papp [9]: 33 ×10⁻⁶ cm/s; Vd [6]: 3.9 L/kg; fraction unbound [10]: 0.15
33 | 1940 nM | 869 nM | O=C(c1ccncc1)c1nc(NCc2cccnc2)nc2ccsc12 | 
34 | 62 nM | 16 nM | O=C(c1cccs1)c1nc(NCc2cccnc2)nc2cc(Cl)sc12 | 
35 | > 10000 nM | 32 nM | Nc1cc2nc(NCc3cccnc3)nc(C(=O)c3cccs3)c2s1 | 
36 | 2490 nM | 19 nM | CCNc1cc2nc(NCc3cccnc3)nc(C(=O)c3cccs3)c2s1 | 
37 | 1420 nM | 39 nM | CN(C)c1cc2nc(NCc3cccnc3)nc(C(=O)c3cccs3)c2s1 | 
38 |  | 495 nM | CNC(=O)c1nc(NCc2cccnc2)nc2ccsc12 | 
39 | 2520 nM | 120 nM | CCNC(=O)c1nc(NCc2cccnc2)nc2ccsc12 | 
40 | 1170 nM | 109 nM | O=C(c1cccnc1)c1nc(NCc2cccnc2)nc2ccsc12 | 
41 |  | 571 nM | O=C(NC1CCCCC1)c1nc(NCc2cccnc2)nc2ccsc12 | 
42 | 2350 nM | 13 nM | CC(Nc1nc(C(=O)N2CCCC2)c2sccc2n1)c1cccnc1 (racemic) | 
